Data published in patent US11730723B2, “Compounds and methods for treating viral infections” (priority 2020, dated 2023).
Values joined by “and” are separate entries in the source; they are usually repeats but may differ in a detail not shown here. Equal values may be shown once. Read-outs that look alike come from different tables or passages of the source.

Legend:
Huh-7 cells = experiment: Cytotoxicity / viability of uninfected Huh-7 cells (XTT, 6 days); details: for Viability (A490): control; for Viability of Huh-7 Cells (A490): raw absorbance 490 nm
HCoV-OC43 [1] = experiment: HCoV-OC43 efficacy in H292 cells (MTT, 6 days); type: cell-based, HCoV-OC43 (Betacoronavirus 1); details: Betacoronavirus 1, OC43, NCI-H292, read-out: Efficacy
HCoV 229E = HCoV 229E CPE assay in MRC-5 cells (CellTiter Glo); type: cell-based, human coronavirus (HCoV) 229E; details: unidentified human coronavirus, MRC5, read-out: HCoV 229E CPE assay EC50
HCoV OC43 = HCoV OC43 CPE assay in Huh7 cells (CellTiter Glo); type: cell-based, human coronavirus (HCoV) OC43; details: Betacoronavirus 1, OC43, Huh-7, read-out: HCoV OC43 CPE Assay EC50
[2] = Cytotoxicity on Huh7 cells (CellTiter Glo); details: human
H292 cells (NCI-H292) = experiment: Cytotoxicity in uninfected H292 cells (MTT); details: CC50, uninfected H292 cells
[3] = Cytotoxicity on MRC-5 cells (CellTiter Glo); details: human
[4] = test system: alpha coronavirus 229E (CoV-229E); experiment: CoV-229E virus-induced CPE inhibition in MRC-5 cells (XTT); details: 6 days
MRC-5 cells = experiment: Cell viability of uninfected drug control MRC-5 cells (XTT), TC50; details: read-out: TC50, uninfected MRC-5 cells, 6 days
[5] = test system: dengue virus (DENV) serotype 2 strain D2S221; experiment: Dengue virus D2S221 inhibition assay in Vero cells (immunostaining); details: read-out: D2S221 IC50
[6] = test system: SARS-CoV-2 (USA-WA1/2020); details: Compound 1 at 25 μM; HCQ at 5 μM; remdesivir 10 μM
Vero E6 cells = details: for viability of Vero E6 cells (percent of vehicle alone): 2-day treatment, mean ± SD of duplicates
in vitro = details: African green monkey
[7] = test system: SARS-CoV-2 (USA-WA1/2020); experiment: microbe, parasite or virus in culture; details: Severe acute respiratory syndrome coronavirus 2, Vero C1008, 48 h, read-out: Live SARS-CoV-2 Antiviral Assay IC50
[8] = Cytotoxicity in HepG2 2.2.15 cells (MTS); type: cell-based; details: human, same assay plate
[9] = test system: HBV wild-type strain ayw1; experiment: Primary anti-HBV assay in HepG2 2.2.15 cells (qPCR of HBV DNA); details: Hepatitis B virus, HepG2 2.2.15, 144 h
HCoV-OC43 [10] = experiment: HCoV-OC43 CPE assay in Huh-7 cells (neutral red uptake, 6 days); type: cell-based, human coronavirus (HCoV) OC43 strain; details: for Raw OD-Absorbance 490 nm: infected Huh-7, neutral red uptake, individual replicates

## CC[C@H]1CN2CCc3cc(OC)c(OC)cc3[C@@H]2C[C@@H]1C[C@H]1NCCc2cc(OC)c(OC)cc21 [Emetine]
Huh-7 cells; 1 μM, percentage viability vs medium only
  Viability (A490): 18.3 ± 0.3%
Huh-7 cells; 1 μM, raw absorbance, individual replicates
  Viability (A490): 0.176 and 0.179
Huh-7 cells; 5 μM, percentage viability vs medium only
  Viability (A490): 8.2 ± 0.7%
Huh-7 cells; 5 μM, raw absorbance, individual replicates
  Viability (A490): 0.104 and 0.111
Huh-7 cells; cytotoxic control, XTT, tested at 5 μM
  cell viability blocked / inhibited: more than 90%

## CCC(CC)COC(=O)[C@H](C)N[P@](=O)(OC[C@H]1O[C@@](C#N)(c2ccc3c(N)ncnn23)[C@H](O)[C@@H]1O)Oc1ccccc1 [Remdesivir]
HCoV-OC43 [1]
  EC50: 37500 nM
HCoV 229E
  EC50: 20 nM
HCoV OC43
  EC50: 20 nM
[2]
  CC50: 6170 nM
H292 cells (NCI-H292)
  Cytotoxicity: >20 µM
[3]
  CC50: 27900 nM
[4]
  EC50: 130 nM
MRC-5 cells
  CC50: > 2000 nM

## CCN(CC)CCCC(C)Nc1ccnc2cc(Cl)ccc12 (stereo not drawn) [Chloroquine diphosphate]
[5]
  IC50: 23700 nM

## CCN(CCO)CCCC(C)Nc1ccnc2cc(Cl)ccc12 (stereo not drawn) [HCQ, hydroxychloroquine]
[6]
  prevention of the SARS-CoV-2 induced CPE (in words): prevented most of the virus-induced CPE
Vero E6 cells; 0.16 μM
  viability of Vero E6 cells (percent of vehicle alone): 103.9 ± 6.9%
Vero E6 cells; 0.31 μM
  viability of Vero E6 cells (percent of vehicle alone): 102.3 ± 4.6%
Vero E6 cells; 0.63 μM
  viability of Vero E6 cells (percent of vehicle alone): 103.2 ± 3.4%
Vero E6 cells; 1.25 μM
  viability of Vero E6 cells (percent of vehicle alone): 100.4 ± 0.5%
Vero E6 cells; 2.5 μM
  viability of Vero E6 cells (percent of vehicle alone): 94.4 ± 7.9%
Vero E6 cells; 5 μM
  viability of Vero E6 cells (percent of vehicle alone): 93.4 ± 6.5%
Vero E6 cells; 10 μM
  viability of Vero E6 cells (percent of vehicle alone): 93.8 ± 6.0%
Vero E6 cells; Compound 1 at concentrations lower than 25 μM, HCQ at all concentrations tested
  viability of Vero E6 cells (in words): not significantly changed
In vitro
  CC50: > 10000 nM
[7]
  IC50: ~3000 nM

## Nc1ccn([C@@H]2CS[C@H](CO)O2)c(=O)n1 [Compound 3TC, Lamivudine]
[8]
  CC50: > 2000 nM
[9]
  EC50: 28.3 nM
  EC90: > 2000 nM

## Sunitinib maleate
HCoV-OC43 [10]; 0.01 μM, mean of duplicates
  Inhibition of OC43 Virus-Induced CPE in Huh-7 Cells: 1.1%
HCoV-OC43 [10]; 0.04 μM, mean of duplicates
  Inhibition of OC43 Virus-Induced CPE in Huh-7 Cells: −1.2%
HCoV-OC43 [10]; 0.12 μM, mean of duplicates
  Inhibition of OC43 Virus-Induced CPE in Huh-7 Cells: −0.1%
HCoV-OC43 [10]; 0.4 μM, mean of duplicates
  Inhibition of OC43 Virus-Induced CPE in Huh-7 Cells: −2.4%
HCoV-OC43 [10]; 1.1 μM, mean of duplicates
  Inhibition of OC43 Virus-Induced CPE in Huh-7 Cells: −1.0%
HCoV-OC43 [10]; 3.3 μM, mean of duplicates
  Inhibition of OC43 Virus-Induced CPE in Huh-7 Cells: 17.9%
HCoV-OC43 [10]; 10 μM, mean of duplicates
  Inhibition of OC43 Virus-Induced CPE in Huh-7 Cells: 21.4%
HCoV-OC43 [10]; 30 μM, mean of duplicates
  Inhibition of OC43 Virus-Induced CPE in Huh-7 Cells: −7.8%
HCoV-OC43 [10]; Huh-7 cells, 6 days, neutral red
  EC50: > 30000 nM
HCoV-OC43 [10]; 0.01 μM
  Raw OD-Absorbance 490 nm: 0.120
HCoV-OC43 [10]; 0.04 μM
  Raw OD-Absorbance 490 nm: 0.094
HCoV-OC43 [10]; 0.4 μM
  Raw OD-Absorbance 490 nm: 0.086 and 0.090
HCoV-OC43 [10]; 1.1 μM
  Raw OD-Absorbance 490 nm: 0.094
HCoV-OC43 [10]; 3.3 μM
  Raw OD-Absorbance 490 nm: 0.312 and 0.136
HCoV-OC43 [10]; 10 μM
  Raw OD-Absorbance 490 nm: 0.214 and 0.280
HCoV-OC43 [10]; 30 μM
  Raw OD-Absorbance 490 nm: 0.051 and 0.053
Huh-7 cells; 0.01 μM, 6 days, individual replicates
  Viability of Huh-7 Cells (A490): 0.721 and 0.651
Huh-7 cells; 0.04 μM, 6 days, individual replicates
  Viability of Huh-7 Cells (A490): 0.738 and 0.751
Huh-7 cells; 0.12 μM, 6 days, individual replicates
  Viability of Huh-7 Cells (A490): 0.719 and 0.752
Huh-7 cells; 0.37 μM, 6 days, individual replicates
  Viability of Huh-7 Cells (A490): 0.732 and 0.765
Huh-7 cells; 1.1 μM, 6 days, individual replicates
  Viability of Huh-7 Cells (A490): 0.676 and 0.665
Huh-7 cells; 3.3 μM, 6 days, individual replicates
  Viability of Huh-7 Cells (A490): 0.642 and 0.601
Huh-7 cells; 10 μM, 6 days, individual replicates
  Viability of Huh-7 Cells (A490): 0.543 and 0.554
Huh-7 cells; 30 μM, 6 days, individual replicates
  Viability of Huh-7 Cells (A490): 0.058 and 0.055
Huh-7 cells; 90 μM, 6 days, individual replicates
  Viability of Huh-7 Cells (A490): 0.053 and 0.054
Huh-7 cells; read-out: Cytotoxicity (Huh-7 cells) CC50, 6 days, XTT
  CC50: 13000 nM

## NC(=O)c1ncn([C@@H]2O[C@H](CO)[C@@H](O)[C@H]2O)n1 [Ribavirin]
[5]
  IC50: 71100 nM

## CCN(CC)CCNC(=O)c1c(C)[nH]c(/C=C2\C(=O)Nc3ccc(F)cc32)c1C [Sunitinib]
H292 cells (NCI-H292)
  Cytotoxicity: 10 to 50 µM
[4]
  EC50: 630 nM
MRC-5 cells
  CC50: 1320 nM
[5]
  IC50: 4060 nM

## C=C1[C@H](CO)[C@@H](O)C[C@@H]1n1cnc2c(=O)[nH]c(N)nc21 [Entecavir]
[8]
  CC50: > 1000 nM
[9]
  EC50: 0.44 nM
  EC90: > 1000 nM

## CCN(CC)CCCC(C)Nc1ccnc2cc(Cl)ccc12 (stereo not drawn) [Chloroquine]
HCoV-OC43 [10]; CQ 5 μM, relative to uninfected cells (mock), listed as CQ
  Inhibition of OC43 Virus-Induced CPE in Huh-7 Cells: 87.8%
HCoV-OC43 [10]; CQ 5 μM, listed as CQ
  Raw OD-Absorbance 490 nm: 0.693 and 0.689
H292 cells (NCI-H292)
  Cytotoxicity: 46.04 µM
[4]
  EC50: 490 nM
